11 compounds from ChEMBL document CHEMBL4020711, “Synthesis and biological evaluation of neoglycosphingolipids” (Eur J Med Chem, 2017) can be followed below.

Assay type in all cases: functional, cell-based
For assay [1], the system named is B16. The assay can be described thus: Upregulation of MMP-9 mRNA expression in mouse B16 cells at 25 uM after 24 hrs by qRT-PCR analysis. Background: In qPCR the cycle at which signal appears reflects the starting amount.
For assay [2], the system named is B16. The assay can be described thus: Upregulation of MMP-9 mRNA expression in mouse B16 cells at 1 uM after 24 hrs by qRT-PCR analysis.
For assay [3], the system named is B16. The assay can be described thus: Suppression of MMP-9 mRNA expression in mouse B16 cells at 1 uM after 24 hrs by qRT-PCR analysis.

Molecules are shown by their SMILES. Calls of active or inactive are those of the source. No cut-off for these calls is given here.

As for `CCCCCCCCCCCCCCCCCCOC(=O)CON(C)[C@@H]1O[C@H](CO)[C@@H](O[C@@H]2O[C@H](CO)[C@@H](O[C@H]3O[C@H](CO)[C@@H](O)[C@H](O)[C@H]3O)[C@H](O)[C@H]2O)[C@H](O)[C@H]1O`, the result with B16 [1] was Active.
Take `CCCCCCCCCCCCCCCCCCOC(=O)CON(C)[C@@H]1O[C@H](CO)[C@@H](O[C@@H]2O[C@H](CO)[C@H](O)[C@H](O[C@]3(C(=O)O)C[C@H](O)[C@@H](NC(C)=O)[C@H]([C@H](O)[C@H](O)CO)O3)[C@H]2O)[C@H](O)[C@H]1O`: the outcome with B16 [2] was Active.
For `CCCCCCCCCCCCCCCCCCOC(=O)[C@H](COC(=O)CON(C)[C@@H]1O[C@H](CO)[C@@H](O)[C@H](O)[C@H]1O)NC(=O)CCCCCCCCCCCCCCCCC`, the outcome in the assay on B16 [1] was Active.
On the same count and under the same terms, in the case of `CCCCCCCCCCCCCCCCCCOC(=O)[C@H](COC(=O)CON(C)[C@@H]1O[C@H](CO)[C@@H](O[C@@H]2O[C@H](CO)[C@H](O)[C@H](O)[C@H]2O)[C@H](O)[C@H]1O)NC(=O)CCCCCCCCCCCCCCCCC` it was “Active”.
With `CCCCCCCCCCCCCCCCCCOC(=O)CON(C)[C@@H]1O[C@H](CO)[C@H](O)[C@H](O)[C@H]1O`, the result with B16 [1] was Active.
On to `CCCCCCCCCCCCCCCCCCOC(=O)CON(C)[C@@H]1O[C@H](CO)[C@@H](O)[C@H](O)[C@H]1O`, for which, in the assay with B16 [3], the inhibition result was “inactive”.
On the same count and under the same terms, the same measure for `CCCCCCCCCCCCCCCCCCOC(=O)[C@H](COC(=O)CON(C)[C@@H]1O[C@H](CO)[C@H](O)[C@H](O)[C@H]1O)NC(=O)CCCCCCCCCCCCCCCCC`: “inactive”.
`CCCCCCCCCCCCCCCCCCOC(=O)[C@H](COC(=O)CON(C)[C@@H]1O[C@H](CO)[C@@H](O[C@@H]2O[C@H](CO)[C@H](O)[C@H](O[C@]3(C(=O)O)C[C@H](O)[C@@H](NC(C)=O)[C@H]([C@H](O)[C@H](O)CO)O3)[C@H]2O)[C@H](O)[C@H]1O)NC(=O)CCCCCCCCCCCCCCCCC`: the outcome with B16 [1] was Active.
Same read-out and setting: in the case of `CCCCCCCCCCCCCCCCCCOC(=O)CON(C)[C@@H]1O[C@H](CO)[C@@H](O[C@@H]2O[C@H](CO)[C@H](O)[C@H](O)[C@H]2O)[C@H](O)[C@H]1O` it was “Active”; in that of `CCCCCCCCCCCCC/C=C/[C@H](O)[C@@H](CO[C@@H]1O[C@H](CO)[C@@H](O[C@@H]2O[C@H](CO)[C@H](O)[C@H](O[C@]3(C(=O)O)C[C@H](O)[C@@H](NC(C)=O)[C@H]([C@H](O)[C@H](O)CO)O3)[C@H]2O)[C@H](O)[C@H]1O)NC(=O)CCCCCCCCCCCCCCCCC`, “Active”.
Regarding `CCCCCCCCCCCCCCCCCCOC(=O)[C@H](COC(=O)CON(C)[C@@H]1O[C@H](CO)[C@@H](O[C@@H]2O[C@H](CO)[C@@H](O[C@H]3O[C@H](CO)[C@@H](O)[C@H](O)[C@H]3O)[C@H](O)[C@H]2O)[C@H](O)[C@H]1O)NC(=O)CCCCCCCCCCCCCCCCC`, the inhibition entry in the assay with B16 [3] is “inactive”.
